Reference: PubChem BioAssay AID256 (DTP/NCI, 2004)
Several values for one entry are separate records, joined by “and”; a condition that tells them apart may be missing. Equal entries are not always repeated. Toxic doses and inconclusive results are not listed. The calls were made as follows: active = survival T/C of 150% or more; inactive = T/C below 125% in these data.

Tested on: CD2F1 mice, L1210 leukemia ip, survival T/C
Assay: NCI In Vivo Anticancer Drug Screen. Data for tumor model L1210 Leukemia (intraperitoneal) in CD2F1 (CDF1) mice
Conditions: higher = longer survival
How it was run: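 In this screen, transplantable tumors were grown in mice given either the compound or its vehicle. Results were expressed as the treated measurement relative to the control measurement.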

[1] = endpoint: mean survival time, dose: 100.0 mg/kg/injection, schedule: Q04DX003 (ip), vehicle: saline with Tween-80
[2] = endpoint: mean survival time, dose: 200.0 mg/kg/injection, schedule: Q04DX003 (ip), vehicle: saline with Tween-80
[3] = endpoint: mean survival time, dose: 100.0 mg/kg/injection, schedule: Q04DX002 (ip), vehicle: saline
[4] = endpoint: mean survival time, dose: 100.0 mg/kg/injection, schedule: Q04DX002 (ip), vehicle: saline with Tween-80
[5] = endpoint: mean survival time, dose: 50.0 mg/kg/injection, schedule: Q01DX009 (ip), vehicle: saline with Tween-80
[6] = endpoint: mean survival time, dose: 100.0 mg/kg/injection, schedule: Q01DX009 (ip), vehicle: saline with Tween-80
[7] = endpoint: mean survival time, dose: 200.0 mg/kg/injection, schedule: Q01DX009 (ip), vehicle: saline with Tween-80
[8] = endpoint: mean survival time, dose: 400.0 mg/kg/injection, schedule: Q04DX003 (ip), vehicle: saline with Tween-80
[9] = endpoint: mean survival time, dose: 100.0 mg/kg/injection, schedule: Q01DX009 (ip), vehicle: saline sonified
[10] = endpoint: mean survival time, dose: 400.0 mg/kg/injection, schedule: Q01DX009 (ip), vehicle: saline with Tween-80

Measured: T/C

COc1ccc(C[C@H](N)C(=O)NC2C(CO)OC(n3cnc4c(N(C)C)ncnc43)C2O)cc1 (some centres undefined)
inactive: endpoint: median survival time, dose: 25.0 mg/kg/injection, schedule: Q01DX005 (ip), vehicle: water 104 % of control | endpoint: median survival time, dose: 50.0 mg/kg/injection, schedule: Q01DX005 (ip), vehicle: water 111 % of control | endpoint: median survival time, dose: 100.0 mg/kg/injection, schedule: Q01DX005 (ip), vehicle: water 100 % of control

O=CN(O)CC(=O)O.[Cu]
inactive: endpoint: mean survival time, dose: 3.12 mg/kg/injection, schedule: Q01DX009 (ip), vehicle: acetone 95 % of control | endpoint: mean survival time, dose: 6.25 mg/kg/injection, schedule: Q01DX009 (ip), vehicle: acetone 101 % of control | endpoint: mean survival time, dose: 12.5 mg/kg/injection, schedule: Q04DX003 (ip), vehicle: saline 100 % of control

CN1C2C=CC(=O)C1C1C(=O)N(c3ccccc3)C(=O)C12 (centres undefined)
inactive: endpoint: median survival time, dose: 12.5 mg/kg/injection, schedule: Q01DX005 (ip), vehicle: Klucel (hydroxypropylcellulose) (HPC) 93 % of control | endpoint: median survival time, dose: 25.0 mg/kg/injection, schedule: Q01DX005 (ip), vehicle: Klucel (hydroxypropylcellulose) (HPC) 98 % of control | endpoint: median survival time, dose: 50.0 mg/kg/injection, schedule: Q01DX005 (ip), vehicle: Klucel (hydroxypropylcellulose) (HPC) 93 % of control | endpoint: median survival time, dose: 100.0 mg/kg/injection, schedule: Q01DX005 (ip), vehicle: Klucel (hydroxypropylcellulose) (HPC) 94 % of control | endpoint: median survival time, dose: 200.0 mg/kg/injection, schedule: Q01DX005 (ip), vehicle: Klucel (hydroxypropylcellulose) (HPC) 95 % of control

N#Cc1c(F)c(F)c(NN)c(F)c1F
inactive: [1] 93 % of control | [2] 89 % of control

CC(SC(=N)N)C(=N)N (centres undefined)
inactive: endpoint: mean survival time, dose: 25.0 mg/kg/injection, schedule: Q04DX002 (ip), vehicle: saline 97 % of control | endpoint: mean survival time, dose: 50.0 mg/kg/injection, schedule: Q04DX002 (ip), vehicle: saline 90 % of control | [3] 105 % of control

N=C(N)N(CCS)CC(=O)O
inactive: endpoint: mean survival time, dose: 200.0 mg/kg/injection, schedule: Q01DX001 (ip), vehicle: saline with Tween-80 87 % of control | endpoint: mean survival time, dose: 400.0 mg/kg/injection, schedule: Q01DX001 (ip), vehicle: saline with Tween-80 90 % of control

Cc1ccc(C2c3c(nc[nH]c3=O)OC2(C)C)cc1 (centres undefined)
inactive: [4] 114 % of control | endpoint: mean survival time, dose: 200.0 mg/kg/injection, schedule: Q04DX002 (ip), vehicle: saline with Tween-80 106 % of control | endpoint: mean survival time, dose: 400.0 mg/kg/injection, schedule: Q04DX002 (ip), vehicle: saline with Tween-80 111 % of control

C=C(CC(=O)O)C(=O)O (tested in a mixture with another compound)
inactive: [5] 108 % of control | [6] 120 % of control | [1] 102 % of control | [7] 105 % of control | [2] 102 % of control

C#CC(O)C(CC)CCCC (centres undefined)
inactive: [5] 99 % of control | [6] 94 % of control

COc1ccccc1N=Nc1c(O)n(-c2ccccc2OC)c(=S)n(-c2ccc(C)cc2)c1=O
inactive: endpoint: mean survival time, dose: 25.0 mg/kg/injection, schedule: Q04DX002 (ip), vehicle: saline with Tween-80 90 % of control | endpoint: mean survival time, dose: 50.0 mg/kg/injection, schedule: Q04DX002 (ip), vehicle: saline with Tween-80 90 % of control | [4] 90 % of control

CC(C)(C)OC(=O)NC(CO)C(=O)O (centres undefined)
inactive: [1] 92 % of control | [2] 86 % of control | [8] 94 % of control

O=C(OCC(OC(=O)c1ccccc1)C1OC(OC(=O)c2ccccc2)C(OC(=O)c2ccccc2)C1OC(=O)c1ccccc1)c1ccccc1 (centres undefined)
inactive: endpoint: mean survival time, dose: 100.0 mg/kg/injection, schedule: Q01DX001 (ip), vehicle: Klucel (hydroxypropylcellulose) (HPC) 88 % of control | endpoint: mean survival time, dose: 200.0 mg/kg/injection, schedule: Q01DX001 (ip), vehicle: Klucel (hydroxypropylcellulose) (HPC) 95 % of control | endpoint: mean survival time, dose: 400.0 mg/kg/injection, schedule: Q01DX001 (ip), vehicle: Klucel (hydroxypropylcellulose) (HPC) 95 % of control

CCCCCCC(=O)CCCCCCCCCCCCC(=O)OC
inactive: [1] 95 % of control | [2] 97 % of control | [8] 93 % of control

COc1cc[n+](C)cc1
inactive: [3] 100 % of control | endpoint: mean survival time, dose: 200.0 mg/kg/injection, schedule: Q04DX002 (ip), vehicle: saline 91 % of control | endpoint: mean survival time, dose: 400.0 mg/kg/injection, schedule: Q04DX002 (ip), vehicle: saline 95 % of control

COc1ccc(Cl)cc1N
inactive: [1] 94 % of control | [2] 92 % of control | [8] 96 % of control

C1CC[N-]CC1.[Cl][Pt+2][Cl].[NH-]C1CC1
inactive: endpoint: mean survival time, dose: 3.0 mg/kg/injection, schedule: Q04DX003 (ip), vehicle: water 100 % of control | endpoint: mean survival time, dose: 6.25 mg/kg/injection, schedule: Q01DX009 (ip), vehicle: distilled water + Tween-80 120 % of control | endpoint: mean survival time, dose: 6.25 mg/kg/injection, schedule: Q01DX009 (ip), vehicle: water 118 % of control | endpoint: mean survival time, dose: 25.0 mg/kg/injection, schedule: Q01DX009 (ip), vehicle: water 119 % of control | endpoint: mean survival time, dose: 25.0 mg/kg/injection, schedule: Q04DX003 (ip), vehicle: distilled water + Tween-80 90 % of control | endpoint: mean survival time, dose: 25.0 mg/kg/injection, schedule: Q04DX003 (ip), vehicle: water 90 % of control

CCOc1ccncc1[N+](=O)[O-]
inactive: [9] 96 % of control | endpoint: mean survival time, dose: 100.0 mg/kg/injection, schedule: Q04DX003 (ip), vehicle: saline sonified 95 % of control | endpoint: mean survival time, dose: 200.0 mg/kg/injection, schedule: Q04DX003 (ip), vehicle: saline sonified 95 % of control | endpoint: mean survival time, dose: 400.0 mg/kg/injection, schedule: Q04DX003 (ip), vehicle: saline sonified 86 % of control

CCCCOC(N)=O
inactive: [6] 100 % of control | [7] 105 % of control | [10] 97 % of control

COC(=O)c1ncccc1C(=O)O
inactive: [1] 94 % of control | [2] 86 % of control | [8] 86 % of control

CC(=O)C1CCC2c3cc4c(c(C)c3CCC12C)CCC(OC(=O)C1CCCCC1)C4 (centres undefined)
inactive: [1] 101 % of control | [2] 101 % of control | [8] 104 % of control

O=C1NC(=O)c2cccc3cccc1c23
inactive: [6] 100 % of control | [1] 98 % of control | [7] 96 % of control | [2] 102 % of control | [10] 94 % of control | [8] 100 % of control

CC(=O)OCc1ccc(Cl)cc1
inactive: [1] 94 % of control | [2] 96 % of control | [8] 96 % of control

CCCCOc1ccccc1NC(=O)CCl
inactive: [6] 97 % of control | [7] 92 % of control | [10] 95 % of control

O=P(OCc1ccccc1)(N(CCCl)CCCl)N1CCOCC1 (centres undefined)
inactive: endpoint: mean survival time, dose: 62.5 mg/kg/injection, schedule: Q01DX010 (ip), vehicle: saline 103 % of control | endpoint: mean survival time, dose: 125.0 mg/kg/injection, schedule: Q01DX010 (ip), vehicle: saline 101 % of control | endpoint: mean survival time, dose: 250.0 mg/kg/injection, schedule: Q01DX010 (ip), vehicle: saline 104 % of control

NC(=O)NN=C1CCC1
inactive: endpoint: mean survival time, dose: 75.0 mg/kg/injection, schedule: Q01DX001 (ip), vehicle: saline 98 % of control

CNC(=O)c1ccc(C(=O)NC)cc1
inactive: [6] 86 % of control | [7] 94 % of control | [10] 96 % of control

BrC1=CC2C3C=CC(c4ccccc43)C12 (centres undefined)
inactive: [1] 95 % of control | [2] 95 % of control | [8] 96 % of control

COc1ccc([N+](=O)[O-])cc1Br
inactive: [1] 100 % of control | [2] 102 % of control | [8] 102 % of control

O=[N+]([O-])c1cc(C2CCCCC2)c(O)c([N+](=O)[O-])c1
inactive: endpoint: mean survival time, dose: 5.0 mg/kg/injection, schedule: Q01DX009 (ip), vehicle: saline with Tween-80 98 % of control | endpoint: mean survival time, dose: 10.0 mg/kg/injection, schedule: Q01DX009 (ip), vehicle: saline with Tween-80 93 % of control | endpoint: mean survival time, dose: 20.0 mg/kg/injection, schedule: Q01DX009 (ip), vehicle: saline with Tween-80 89 % of control

O=C(Nc1ccccc1SC(=O)c1ccccc1)c1ccccc1
inactive: [5] 91 % of control | [6] 87 % of control | [7] 91 % of control

CCC(C)OC(=O)Nc1ccccc1 (centres undefined)
inactive: [6] 96 % of control | [1] 94 % of control | [7] 98 % of control | [2] 94 % of control | [10] 98 % of control | [8] 94 % of control

O=C1c2ccccc2C(=O)N1Cc1ccc([N+](=O)[O-])cc1Cl
inactive: [5] 87 % of control | [6] 98 % of control | [7] 94 % of control

COc1cc2c(cc1OC)C(Cc1ccccc1)=NCC2
inactive: endpoint: mean survival time, dose: 50.0 mg/kg/injection, schedule: Q01DX009 (ip), vehicle: saline sonified 101 % of control | [9] 101 % of control | [1] 94 % of control | [2] 92 % of control

O=C(Nc1ccc(F)cc1)c1ccc(C(=O)Nc2ccc(F)cc2)cc1
inactive: [1] 100 % of control | [8] 94 % of control

CN1CC=C(N2CCOCC2)CC1
inactive: endpoint: mean survival time, dose: 25.0 mg/kg/injection, schedule: Q04DX003 (ip), vehicle: saline 109 % of control | endpoint: mean survival time, dose: 50.0 mg/kg/injection, schedule: Q04DX003 (ip), vehicle: saline 103 % of control | endpoint: mean survival time, dose: 100.0 mg/kg/injection, schedule: Q04DX003 (ip), vehicle: saline 103 % of control and 109 % of control
